Test results from ChEMBL document CHEMBL5236579, “Hydrophobicity Determines the Bacterial Killing Rate of α-Helical Antimicrobial Peptides and Influences the Bacterial Resistance Development” (J Med Chem, 2022).
pKd: −log10 of the molar value. ≈ marks a conversion by molar mass, not a printed value. Blank lines part the entries; values can stand above or below the compound they belong to. Calls of active or inactive are those of the source. The calls are words filed in the database; no cut-off is given here. Where a SMILES comes first, the peptide text is derived from it.

What was measured:
Staphylococcus aureus [1] = test: Antimicrobial activity against Staphylococcus aureus ATCC25923 by two fold broth microdilution method; type: functional; settings: read-out: MIC
Staphylococcus aureus [2] = test: Antimicrobial activity against clinical isolates Staphylococcus aureus by two fold broth microdilution method; type: functional
Bacillus cereus = test: Antimicrobial activity against clinical isolates Bacillus cereus by two fold broth microdilution method; type: functional
Escherichia coli [3] = test: Antimicrobial activity against Escherichia coli ATCC27622 by two fold broth microdilution method; type: functional
Vibrio parahaemolyticus [4] = test: Antimicrobial activity against Vibrio parahaemolyticus ATCC17802 by two fold broth microdilution method; type: functional
Vibrio parahaemolyticus [5] = test: Bactericidal activity against Vibrio parahaemolyticus ATCC17802 assessed as killing rate at 0.5 X MIC by measuring time limit of detection by bacterial killing kinetic assay; type: functional
Vibrio parahaemolyticus [6] = test: Induction of morphological changes in Vibrio parahaemolyticus ATCC17802 assessed as massive cell collapse incubated at 5 times MIC and measured after 60 mins by scanning electron microscopy based analysis; type: functional, organism-based
Vibrio parahaemolyticus [7] = test: Induction of morphological changes in Vibrio parahaemolyticus ATCC17802 assessed as surface fibrosis incubated at 5 times MIC and measured after 60 mins by scanning electron microscopy based analysis; type: functional, organism-based
Vibrio parahaemolyticus [8] = test: Induction of morphological changes in Vibrio parahaemolyticus ATCC17802 assessed as cellular inclusion leakage incubated at 5 times MIC and measured after 60 mins by scanning electron microscopy based analysis; type: functional, organism-based
HaCaT = test: Cytotoxicity against human HaCaT cells incubated for 48 hrs by MTT assay; type: toxicity, cell-based; settings: dose < 250 µg/ml
Peritoneal macrophage = test: Cytotoxicity against mouse peritoneal macrophage cells incubated for 48 hrs by MTT assay; type: toxicity, cell-based; settings: dose < 250 µg/ml
[9] = Hemolytic activity in human erythrocytes measured after 30 mins; type: toxicity, cell-based; settings: erythrocyte, 0.5 h
Cell membrane [10] = test: Induction of inner membrane permeabilization in Vibrio parahaemolyticus ATCC17802 at 5 times MIC measured upto 200 mins by propidium iodide penetration assay; type: cell membranes
Cell membrane [11] = test: Induction of inner membrane permeabilization in Vibrio parahaemolyticus ATCC17802 assessed as calcein leakage at 5 times MIC by calcein-AM leakage assay; type: cell membranes; settings: time <= 200.0 min, TDE = time-dependent effect
Cell membrane [12] = test: Induction of inner membrane permeabilization in Vibrio parahaemolyticus ATCC17802 assessed as increase in PI fluorescence intensity at 5 times MIC by propidium iodide penetration assay; type: cell membranes; settings: time <= 200.0 min
Cell membrane [13] = test: Induction of cytoplasmic membrane permeabilization in Vibrio parahaemolyticus […] assessed as calcein transmembrane diffusion into interior of gaint unilamellar vesicles by measuring time to equilibrium between inside and outside of vesicles at 2 ug/mL by confocal microscopy based calcein-AM leakage assay; type: cell membranes; settings: dose 2.0 µg/ml
Cell membrane [14] = test: Binding affinity to Vibrio parahaemolyticus ATCC17802 cell membrane assessed as increase in fluorescence intensity measured after 30 mins by flow cytometry analysis (reference value: 1.85%); type: cell membranes
Cell membrane [15] = test: Binding affinity to Vibrio parahaemolyticus ATCC17802 cell membrane assessed as increase in fluorescence intensity measured after 120 mins by flow cytometry analysis (reference value: 1.88%); type: cell membranes
Cell membrane [16] = test: Induction of outer membrane permeabilization in Vibrio parahaemolyticus ATCC17802 assessed as increase fluorescence intensity at 0.5 to 2 times of MIC by NPN uptake assay; type: cell membranes; settings: time <= 15.0 min, TDE = time-dependent effect
Cell membrane [17] = test: Induction of outer membrane permeabilization in Escherichia coli ATCC25722 assessed as increase fluorescence intensity at 0.5 to 2 times of MIC by NPN uptake assay; type: cell membranes; settings: time <= 15.0 min, TDE = time-dependent effect
Cell membrane [18] = test: Induction of outer membrane permeabilization in Vibrio parahaemolyticus ATCC17802 assessed as increase fluorescence intensity measured upto 15 mins by NPN uptake assay; type: cell membranes
Cell membrane [19] = test: Induction of outer membrane permeabilization in Escherichia coli ATCC25722 assessed as increase fluorescence intensity measured upto 15 mins by NPN uptake assay; type: cell membranes
Lipopolysaccharide (LPS) [20] = test: Binding affinity to Escherichia coli LPS assessed as LPS neutralizing activity measured after 5 mins by LPS neutralization assay
Lipopolysaccharide (LPS) [21] = test: Binding affinity to Escherichia coli LPS assessed as dissociation constant measured upto 600 sec by surface plasmon resonance imaging method
[22] = Effect on morphological changes in POPC/POPG (3:1) bilayer membrane assessed as formation of bulge aggregates by measuring the height of bulges at 2 ug/ml incubated for 40 mins under neutral pH and low ionic strength by atomic force microscopic analysis; type: cell membranes; settings: Cell membrane, dose 2.0 µg/ml
Escherichia coli [23] = test: In vivo antibacterial activity against Escherichia coli ATCC25722 infected in Balb/c mouse model assessed as reduction in bacterial CFU count on skin at 20 ug/ml applied 4 hrs after infection and measured after 120 mins; type: functional, organism-based; settings: dose 20.0 µg/ml
Escherichia coli [24] = test: In vivo antibacterial activity against Escherichia coli ATCC25722 infected in Balb/c mouse model assessed as reduction in bacterial CFU count on skin at 20 ug/ml incubated for 6 hrs post infection and measured after 2 hrs post compound treatment; type: functional, organism-based; settings: dose 20.0 µg/ml, time 8.0 hrs
Vibrio parahaemolyticus [25] = test: Induction of bacterial resistance in Vibrio parahaemolyticus ATCC17802 assessed as fold increase in MIC treated over 30 serial passages measured after 24 hrs; type: functional
Cell membrane [26] = test: Induction of bacterial inner membrane permeabilization in Vibrio parahaemolyticus ATCC17802 assessed as calcein leakage from large unilamellar vesicles liposomes at 5 times MIC by fluorescence based microplate reader assay; type: cell membranes; settings: time <= 60.0 min, TDE = time-dependent effect
Vibrio parahaemolyticus [27] = test: Induction of morphological changes in Vibrio parahaemolyticus ATCC17802 assessed as cellular inclusion leakage incubated at 5 times MIC and measured after 15 mins by scanning electron microscopy based analysis; type: functional, organism-based
Vibrio parahaemolyticus [28] = test: Induction of morphological changes in Vibrio parahaemolyticus ATCC17802 assessed as surface fibrosis incubated at 5 times MIC and measured after 15 mins by scanning electron microscopy based analysis; type: functional, organism-based
Vibrio parahaemolyticus [29] = test: Induction of morphological changes in Vibrio parahaemolyticus ATCC17802 assessed as massive cell collapse incubated at 5 times MIC and measured after 15 mins by scanning electron microscopy based analysis; type: functional, organism-based
Cell membrane [30] = test: Induction of bacterial inner membrane permeabilization in Vibrio parahaemolyticus ATCC17802 assessed as calcein leakage from large unilamellar vesicles liposomes at 5 times MIC measured upto 60 mins by fluorescence based microplate reader assay; type: cell membranes
Lipopolysaccharide (LPS) [31] = test: Binding affinity to Escherichia coli LPS assessed as LPS neutralizing activity measured after 60 mins by LPS neutralization assay
Vibrio parahaemolyticus [32] = test: Induction of bacterial resistance in Vibrio parahaemolyticus ATCC17802 assessed as change in MIC treated over 30 serial passages measured after 24 hrs; type: functional, organism-based

SMILES: CC[C@H](C)[C@H](NC(=O)[C@H](CC(C)C)NC(=O)[C@H](CCCNC(=N)N)NC(=O)[C@H](CC(C)C)NC(=O)[C@H](CC(C)C)NC(=O)[C@H](CCCCN)NC(=O)[C@H](CCCCN)NC(=O)[C@H](Cc1ccccc1)NC(=O)[C@H](CC(C)C)NC(=O)CNC(=O)[C@@H](N)CC(C)C)C(=O)N[C@@H](CCCCN)C(=O)N[C@@H](CCCCN)C(=O)NCC(=O)N[C@@H](Cc1ccccc1)C(=O)N[C@@H](CCCCN)C(=O)N[C@@H](CCCCN)C(=O)O (H-LGLFKKLLRLIKKGFKK-OH)
MIC (Staphylococcus aureus [1]): 2.34 µg/mL (≈ 1.15 µM) | MIC (Staphylococcus aureus [2]): 18.8 µg/mL (≈ 9.23 µM) | MIC (Bacillus cereus): 4.69 µg/mL (≈ 2.31 µM) | MIC (Escherichia coli [3]): 9.38 µg/mL (≈ 4.62 µM) | MIC (Vibrio parahaemolyticus [4]): 4.69 µg/mL (≈ 2.31 µM) | Time (Vibrio parahaemolyticus [5]): 60 min | Activity (Vibrio parahaemolyticus [6]): Active | Activity (Vibrio parahaemolyticus [7]): Active | Activity (Vibrio parahaemolyticus [8]): Active | Activity (HaCaT): Dose-Dependent Effect | Activity (Peritoneal macrophage): Dose-Dependent Effect | Activity [9]: Toxic | Activity (Cell membrane [10]): Active | Activity (Cell membrane [11]): Tde | Activity (Cell membrane [12]): Active | TIME (Cell membrane [13]): < 0.25 h | Activity (Cell membrane [14]): 64.3% | Activity (Cell membrane [15]): 99.4% | Activity (Cell membrane [16]): Tde | Activity (Cell membrane [17]): Tde | Activity (Cell membrane [18]): Dose-Dependent Effect | Activity (Cell membrane [19]): Dose-Dependent Effect | Activity (Lipopolysaccharide (LPS) [20]): inactive | pKd (Lipopolysaccharide (LPS) [21]): 4.31 | Activity [22]: 1 nm | Activity (Escherichia coli [23]): Active | Activity (Escherichia coli [24]): Active | fold change (FC) (Vibrio parahaemolyticus [25]): 2

MIC (Staphylococcus aureus [1]): 1.17 µg/mL (≈ 0.58 µM) | MIC (Staphylococcus aureus [2]): 9.38 µg/mL (≈ 4.65 µM) | MIC (Bacillus cereus): 9.38 µg/mL (≈ 4.65 µM) | MIC (Escherichia coli [3]): 9.38 µg/mL (≈ 4.65 µM)
SMILES: CC[C@H](C)[C@H](NC(=O)[C@H](CC(C)C)NC(=O)[C@H](CCCNC(=N)N)NC(=O)[C@H](CC(C)C)NC(=O)[C@H](CC(C)C)NC(=O)[C@H](CCCCN)NC(=O)[C@H](CCCCN)NC(=O)[C@H](Cc1ccccc1)NC(=O)[C@H](CC(C)C)NC(=O)CNC(=O)[C@@H](N)CC(C)C)C(=O)N[C@@H](CCCCN)C(=O)N[C@@H](CCCCN)C(=O)NCC(=O)N[C@@H](Cc1ccccc1)C(=O)N[C@@H](CCCCN)C(=O)N[C@@H](CC(C)C)C(=O)O (H-LGLFKKLLRLIKKGFKL-OH)
MIC (Vibrio parahaemolyticus [4]): 4.69 µg/mL (≈ 2.33 µM) | Time (Vibrio parahaemolyticus [5]): 30 min | Activity (Cell membrane [10]): Active | Activity (Cell membrane [11]): Tde | Activity (Cell membrane [12]): Active | Activity (Cell membrane [26]): Tde

SMILES: CC[C@H](C)[C@H](NC(=O)[C@H](CC(C)C)NC(=O)[C@H](CCCNC(=N)N)NC(=O)[C@H](CC(C)C)NC(=O)[C@H](CC(C)C)NC(=O)[C@H](CCCCN)NC(=O)[C@H](CCCCN)NC(=O)[C@H](Cc1ccccc1)NC(=O)[C@H](CC(C)C)NC(=O)CNC(=O)[C@@H](N)CC(C)C)C(=O)N[C@@H](CC(C)C)C(=O)N[C@@H](CCCCN)C(=O)NCC(=O)N[C@@H](Cc1ccccc1)C(=O)N[C@@H](CCCCN)C(=O)N[C@@H](CC(C)C)C(=O)O (H-LGLFKKLLRLILKGFKL-OH)
MIC (Staphylococcus aureus [1]): 1.17 µg/mL (≈ 0.585 µM) | MIC (Staphylococcus aureus [2]): 9.38 µg/mL (≈ 4.69 µM) | MIC (Bacillus cereus): 9.38 µg/mL (≈ 4.69 µM) | MIC (Escherichia coli [3]): 9.38 µg/mL (≈ 4.69 µM) | MIC (Vibrio parahaemolyticus [4]): 4.69 µg/mL (≈ 2.34 µM) | Time (Vibrio parahaemolyticus [5]): 15 min | Activity (Vibrio parahaemolyticus [27]): Active | Activity (Vibrio parahaemolyticus [28]): Active | Activity (Vibrio parahaemolyticus [29]): Active | Activity (HaCaT): Dose-Dependent Effect | Activity (Peritoneal macrophage): Dose-Dependent Effect | Activity [9]: Toxic | Activity (Cell membrane [10]): Active | Activity (Cell membrane [11]): Tde | Activity (Cell membrane [12]): Active | Activity (Cell membrane [30]): Active | TIME (Cell membrane [13]): < 0.25 h | Activity (Cell membrane [14]): 98.5% | Activity (Cell membrane [15]): 88.1% | Activity (Cell membrane [16]): Tde | Activity (Cell membrane [17]): Tde | Activity (Cell membrane [18]): Dose-Dependent Effect | Activity (Cell membrane [19]): Dose-Dependent Effect | Activity (Lipopolysaccharide (LPS) [20]): Active | Activity (Lipopolysaccharide (LPS) [31]): Active | pKd (Lipopolysaccharide (LPS) [21]): 4.09 | Activity [22]: 20 nm | Activity (Escherichia coli [23]): Active | Activity (Escherichia coli [24]): Active | Activity (Vibrio parahaemolyticus [32]): inactive
